The test system of data set [1] is p38. Description: DiscoveRX kinase profile analysis of SD208, p38. It is filed as biochemical. To be noted: 10 µM; kinase profiling; Supplementary Fig. 2a.
Data set [2] deals with RPL11-insufficient cord blood CD34+ HSPCs. Description: In vitro differentiation of cord blood CD34+ HSPCs transduced with shRNA against RPL11. It counts as cell-based. The following applies: Homo sapiens, 360 h; read-out: erythroid expansion in RPL11-insufficiency, % of control. An excerpt:
Fig. 8 NLK inhibition increases expansion of erythroid progenitors from human and murine models of DBA. a Human cord blood CD34^+ progenitors were transduced with lentivirus co-expressing GFP with shRNA against luciferase (shLuc), RPS19 (shRPS19), or RPL11 (shRPL11). […] Cells were counted and assessed for cell surface expression of CD235. b Lin-Kit^+ hematopoietic progenitors were obtained from three mouse embryos expressing tetracycline-inducible shRNA against RPS19 at day E14.5 or three untreated mice, and thee mature RPL11^+/+ or three mature RPL11^+/lox mice treated with tamoxifen for eight weeks. […] Values were expressed as a percentage relative to untreated controls. c, d Intracellular phosphorylation of NLK at Thr298 was determined by capillary electrophoresis using the Peggy Sue™ Automated Western blotting platform. After lysis, 4 µg of protein from the CD235^+ population was probed against pThr298-NLK and normalized to GAPDH. […] After counting the total cell population, the ratio of CD235^+ erythroblasts was determined by flow cytometry and number of CD235^+ erythroblasts calculated. This was expressed as a percentage of the average number of erythroid cells present in untreated healthy controls. f NLK phosphorylation was assessed by capillary electrophoresis as above. Bars represent means ± SD with individual data points overlaid. […]

The conditions of data set [3]: authors' statement in rebuttal, no data or reference; cited from earlier work.
Data set [4] has as its system RPS19-insufficient Lin-Kit+ cells. Description: Erythroid differentiation (Ter119+) of Lin-Kit+ cells from tetracycline-inducible shRPS19 mice. The following applies: SD208 with doxycycline; 8 days; three mice; without SD208 24.3, 20.3, 18.5%; Fig. 8b. It counts as cell-based, mouse. As to the method: Cells were counted and assessed for cell surface expression of CD235. b Lin-Kit^+ hematopoietic progenitors were obtained from three mouse embryos expressing tetracycline-inducible shRNA against RPS19 at day E14.5 or three untreated mice, and thee mature RPL11^+/+ or three mature RPL11^+/lox mice treated with tamoxifen for eight weeks. […] Values were expressed as a percentage relative to untreated controls. c, d Intracellular phosphorylation of NLK at […] was determined by capillary electrophoresis using the Peggy SueTM Automated Western blotting platform. […] After counting the total cell population, the ratio of CD235^+ erythroblasts was determined by flow cytometry and number of CD235^+ erythroblasts calculated. This was expressed as a percentage of the average number of erythroid cells present in untreated healthy controls. f NLK phosphorylation was assessed by capillary electrophoresis as above. Bars represent means ± SD with individual data points overlaid. […] Statistics: two-tailed Student's t test, significant *p < 0.05. Also see Supplementary Fig. 8. Source data are provided as a Source Data file. […] RPS19-insufficiency reduced Ter119^+ erythroblasts to 24.3, 20.3, and 18.5% of controls differentiated in the absence of doxycycline.

Data set [5] has as its system p38. Description: Reported p38 inhibition (literature / PubChem). It is filed as biochemical. The following applies: 850nM vs 440nM; rebuttal letter. The source says:
But as p38 can phosphorylate NLK, Myb and Raptor in vitro, we performed a series of experiments that indicate NLK-associated p38 is not contributing to substrate phosphorylation. We determined the IC50 values of a panel of eight p38 inhibitors against p38 and NLK in our in vitro kinase assays. For comparison, reported IC50 values from bioassay results submitted to the National Center for Biotechnology Information PubChem Database were tabulated.

Where “and” joins values, the source holds several entries; their conditions need not be identical. Equal values may be shown once.

The values below come from PMC7334220, “Diamond Blackfan anemia is mediated by hyperactive Nemo-like kinase” (Nature Communications, 2020).

Take `Fc1ccc(Cl)cc1-c1nc(Nc2ccncc2)c2nccnc2n1` [SD208]: the “inhibition of p38 kinase activity” value in the data set with p38 [1] amounted to 99.6%. Moreover, the activity at 5 µM in data set [2] came out at 36.7%. Further, the solubility result in data set [3] is “poor”. Moreover, the “Ter119+ erythroblasts, % of controls differentiated without doxycycline” value in data set [4] is 83.2% and 81.1% and 76.6%. Further, in the data set on p38 [5], the “reported p38 IC50 compared to observed NLK IC50” value is 2 fold.
